Experimental data as given in patent US5177106A, “4-amino substituted phenoxyalkyl carboxylic acid, ester, and alcohol derivatives as antihypercholesterolemic and antiatherosclerotic agents” (Warner-Lambert Company, priority 1991, dated 1993).

Legend:
[1] = target: T1, acyl-CoA:cholesterol acyltransferase (ACAT) (Oryctolagus cuniculus, UniProt G1SFD9); assay: Inhibition of cholesterol esterification by acyl-CoA:cholesterol acyltransferase (ACAT), in vitro, rabbit intestinal microsomal fraction; type: biochemical; details: endogenous cholesterol and exogenous 14C-oleoyl-CoA, read-out: IC50 (concentration of test compound required to inhibit cholesteryl oleate formation to 50% of control)
T1 construct: rabbit intestinal microsomal fraction; from tissue; host or cells: rabbit intestine, microsomal fraction
T1 sequence (G1SFD9 1-524): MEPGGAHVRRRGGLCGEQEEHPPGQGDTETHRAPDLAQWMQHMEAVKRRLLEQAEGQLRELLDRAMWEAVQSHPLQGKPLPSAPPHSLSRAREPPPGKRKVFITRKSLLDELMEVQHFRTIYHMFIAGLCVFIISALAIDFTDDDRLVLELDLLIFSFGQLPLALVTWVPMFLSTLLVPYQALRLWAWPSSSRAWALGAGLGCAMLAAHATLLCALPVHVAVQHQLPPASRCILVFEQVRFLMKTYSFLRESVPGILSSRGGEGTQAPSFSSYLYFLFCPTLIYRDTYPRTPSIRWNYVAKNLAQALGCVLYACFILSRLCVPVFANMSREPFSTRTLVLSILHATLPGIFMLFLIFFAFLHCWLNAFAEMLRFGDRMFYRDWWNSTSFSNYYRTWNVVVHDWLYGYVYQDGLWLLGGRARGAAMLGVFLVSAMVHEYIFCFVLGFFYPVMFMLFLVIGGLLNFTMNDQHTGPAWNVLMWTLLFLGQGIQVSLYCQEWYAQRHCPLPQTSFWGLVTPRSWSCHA
Method: The compounds of the present invention were tested for their ability to inhibit the esterification of cholesterol by the enzyme acyl-CoA:cholesterol acyltransferase (ACAT). The data in the table below is expressed as IC50 values, i.e., the concentration of test compound required to inhibit cholesteryl oleate formation to 50% of control.
The in vitro test employed is more fully described in Field, F. J. and Salome, R. G., Biochemica et Biophysica Acta, Volume 712, pages 557-570 (1982). The assay evaluates the ability of a test compound to inhibit the esterification of cholesterol using endogenous cholesterol of a rabbit intestinal microsomal fraction and exogenous ^14 C-oleoyl-CoA as reactants.

[2] = Elevation of HDL by test drug relative to gemfibrozil (test procedure of U.S. Pat. No. 4,413,011); type: in vivo; details: ratio; 50 mg/kg test drug vs 50 mg/kg gemfibrozil; 1 = as effective as gemfibrozil
Method: Additionally, the elevation of HDL is reported in the table as a ratio of the elevation of HDL effected by a dose of 50 mg/kg of the test drug divided by the elevation of HDL effected by a 50 mg/kg dose of gemfibrozil which is used as a control in each experiment. [formula] Thus, a figure of 1 means that the test drug was as effective as gemfibrozil in elevating HDL. […] The test procedure is described in U.S. Pat. No. 4,413,011, which is herein incorporated by reference.

[3] = patients with elevated cholesterol levels; 5-year trial; cited from earlier work

IC50 [1] [µM]	SMILES	Δ HDL Test Compound / Δ HDL Gemfibrozil [2]	reduction of the rate of heart attack and sudden cardiac death [3] [%]
28	COC(=O)C(C)(C)CCCOc1cc(C)c(NC(=S)Nc2ccccc2)cc1C [Example 16, 5-[2,5-Dimethyl-4-[[(phenylamino)-thioxomethyl]amino]phenoxy]-2,2-dimethylpentanoic acid, methyl ester]	0.9	
	Cc1ccc(C)c(OCCCC(C)(C)C(=O)O)c1 [gemfibrozil]		34
69	COC(=O)C(C)(C)CCCOc1cc(C)c(NS(C)(=O)=O)cc1C [Example 12]	1.5	
74	CCCCCCCCCCCCCCCCS(=O)(=O)Nc1cc(C)c(OCCCC(C)(C)C(=O)OC)cc1C [Example 5, 5-[4-[(Hexadecylsulfonyl)amino]-2,5-dimethylphenoxy]-2,2-dimethylpentanoic acid, methyl ester]	0.8	
